In patent US8933270B2, “Use of docasatrienes, resolvins, and their stable analogs in the treatment of airway diseases and asthma” (The Brigham and Women's Hospital, Inc., priority 2002, dated 2015):
Values belong to the molecule of their own block, whether it stands above or below them.

Key:
PMN infiltration = experiment: Zymosan A-induced peritonitis; assay type: in vivo, FVB mice; settings: for inhibition of PMN/leukocyte infiltration: i.v. bolus before zymosan A, lavage at 2 h
Description: (§1) FIG. 5 depicts Bioimpact properties of omega-3-derived Resolvins. A) Human glioma cells: Inhibition of TNF-stimulated IL-1β transcripts DBTRG-05MG cells 10^6/ml were stimulated with 50 ng/ml of human recombinant TNFα for 16 hours to induce expression of IL-1β transcripts. Concentration dependence with COX-2 products: 17-HDHA (n), 13-HDHA (l)and di-/tri-HDHA (n). […] (insets) Results are representative of RT-PCR gels of MG cells exposed to 100 nM of 13-HDHA or 17-HDHA and graphed after normalization of the IL-1β transcripts using GAPDH. B) Influence of eicosanoids and docosanoids on fMLP-induced neutrophil migration across micovascular endothelial monolayers Neutrophils (1×10^6 cells/monolayer) were exposed to vehicle containing buffer, or indicated concentrations of aspirin-triggered LXA4 analog (closed diamonds) 5S,12,18R-triHEPE (closed squares), 17R-HDHA (closed circles) or 13-HDHA (closed triangles) for 15 minutes at 37° C. Neutrophils were then layered on HMVEC monolayers and stimulated to transmigrate by a 10^−8 M fMLP gradient for 1 hr at 37° C. Transmigration was assessed by quantitation of the neutrophil marker myeloperoxidase. Results are presented as mean±SEM number of PMN (n=8-12 monolayers per condition). C) Reduction of PMN in murine peritonitis and skin pouch peritonitis: Compounds (100 ng in 120 μL sterile saline) were injected by intravenous bolus injection into the mouse tail vein and followed by 1 ml zymosan A (1 mg/ml) into the peritoneum. Peritoneal lavages were collected (2 h) and cell types were enumerated.
Human PMN transendothelial migration was quantitated by monitoring myeloperoxidase (MPO) an azurophilic granule marker as in (34, 37). Inflammatory exudates were initiated with intrapouch injection of recombinant mouse TNFα (100 ng/pouch; R&D Systems) into dorsal air pouches (10) of 6-8 wk male FVB mice fed laboratory rodent diet 5001 (Lab Diet, Purina Mills) containing less than 0.25% arachidonic acid, 1.49% EPA and 1.86% DHA followed by ASA (500 μg) at 3.5 h and 300 μg DHA/pouch at 4 h post-TNFα injection. At 6 h (within the resolution phase), pouches were lavaged (3 ml saline) and exudate cells were enumerated Inhibition of TNFα stimulated (100 ng/pouch) PMN infiltration with i.v. tail injection of either 17R-HDHA (as prepared with COX-2 vide infra), 5S,12,18R-HEPE, or a 15-epi-LXA4 analog were determined with pouch lavages taken at 4 h. Peritonitis was performed using 6 to 8-week-old FVB male mice (Charles River Laboratories) fed laboratory Rodent Diet 5001 (Purina Mills) that were anesthetized with isoflurane, and compounds to be tested (125 μl) were administered intravenously. Zymosan A in 1 ml (1 mg/ml) was injected ˜1-1.5 min later in the peritoneum. Each test compound (100 ng/incubation, i.e. 17R-HDHA in ethanol) or vehicle alone was suspended in ˜5 μl and mixed in sterile saline 120 μl. Two hours after the intraperitoneal injections, and in accordance with the Harvard Medical Area Standing Committee on Animals protocol #02570, mice were euthanized and peritoneal lavages rapidly collected for enumeration.
Peritonitis was induced in 6 to 8 week old male FVB mice by peritoneal injection of 1 mg Zymosan A. Compounds 4,17S and 10,17S-diHDHA were injected by intravenous bolus injection, 1.5 minutes before Zymosan A treatment. Two hours after induction of peritonitis, rapid peritoneal lavages were collected and cell type enumeration was performed.

[1] = test system: IL-1β transcripts in DBTRG-05MG cells; experiment: Inhibition of TNF-stimulated IL-1β transcripts (RT-PCR); assay type: cell-based, human; settings: 50 ng/ml TNFα, 16 h; read-out: IC50, inhibition of TNFα-induced IL-1β transcripts / cytokine expression
Description: as §1, with “C) Reduction of PMN in murine peritonitis and skin pouch peritonitis: Compounds (100 ng in 120 μL sterile saline) were injected by intravenous bolus injection into the mouse tail vein and followed by 1 ml zymosan A (1 mg/ml) into the peritoneum. Peritoneal lavages were collected (2 h) and cell types were enumerated.” left out
Human glioma cells DBTRG-05MG cells (ATCC) were cultured as recommended by ATCC. […] Results were analyzed using the NIH Image program (http://rsb.info.nih.gov/nih-image).

human recombinant COX-2 = target: T1, human recombinant COX-2 (Homo sapiens, UniProt P35354); experiment: Impact of NSAIDs on COX-2 conversion of DHA; assay type: biochemical
T1 construct: made in house; host or cells: Sf9 insect cells (microsomal fractions)
T1 sequence (P35354 18-604): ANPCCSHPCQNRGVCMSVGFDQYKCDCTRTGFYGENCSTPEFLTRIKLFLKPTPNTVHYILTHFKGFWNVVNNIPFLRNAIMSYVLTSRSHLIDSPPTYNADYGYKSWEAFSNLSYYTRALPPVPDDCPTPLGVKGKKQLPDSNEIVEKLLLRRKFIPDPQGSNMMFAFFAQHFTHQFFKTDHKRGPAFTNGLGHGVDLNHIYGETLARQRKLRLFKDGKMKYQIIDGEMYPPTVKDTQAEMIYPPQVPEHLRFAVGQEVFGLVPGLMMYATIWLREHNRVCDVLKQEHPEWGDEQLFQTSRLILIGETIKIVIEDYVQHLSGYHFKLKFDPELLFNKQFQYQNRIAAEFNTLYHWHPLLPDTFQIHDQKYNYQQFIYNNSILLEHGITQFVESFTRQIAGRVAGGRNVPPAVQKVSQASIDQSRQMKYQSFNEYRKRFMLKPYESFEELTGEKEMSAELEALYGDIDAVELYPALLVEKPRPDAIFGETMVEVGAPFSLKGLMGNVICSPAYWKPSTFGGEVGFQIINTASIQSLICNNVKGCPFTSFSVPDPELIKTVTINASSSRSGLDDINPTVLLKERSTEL
Description: Human recombinant COX-2 was overexpressed in Sf9 insect cells (ATCC). The microsomal fractions (˜8 μl) were suspended in Tris (100 mM, pH 8.0) as in (35). ASA was incubated (˜2 mM, 37° C., 30 min) with COX-2 before addition of DHA (10 μM), or in some experiments [1-^14C]-labeled DHA (from American Radiolabeled Chemicals, Inc.), and conversions were monitored in parallel using [1^−14C]-labeled C20:4 (with ASA) (as in FIG. 2; also see text).
Incubations were extracted with deuterium-labeled internal standards (15-HETE and C20:4) for LC-MS-MS analysis as in (33) using a Finnigan LCQ liquid chromatography ion trap tandem mass spectrometer (San Jose, Calif.) equipped with a LUNA C18-2 (150×2 mm×5 μm or 100×2 mm×5 μm) column and a rapid spectra scanning UV diode array detector that monitored UV absorbance ˜0.2 min prior to samples entering the MS-MS. All intact cell incubations and in vivo exudates were stopped with 2 ml cold methanol and kept at −80° C. for >30 minutes. Samples were extracted using C18 solid phase extraction and analyzed using GC-MS (see Table 2) (Hewlett-Packard), thin layer chromatography or tandem liquid chromatography-mass spectrometry (LC-MS-MS). Also, a Chiralcel OB-H column (4.6×250 mm; J. T. Baker) was used to determine R and S alcohol configurations of monohydroxy-PUFA using isocratic mobile phase (hexane:isopropanol; 97.5:2.5, vol:vol, with a 0.6 ml/min flow rate). Detailed procedures for isolation, quantitation and structural determination of lipid-derived mediators were recently reported (36) and used here essentially as reported for elucidation of novel products.
Results are the mean±SEM, n=3. Products were extracted, identified, and quantitated using deuterium internal standards and LC-MS-MS (see Methods).

leukocyte infiltration = experiment: TNFα-induced dorsal air pouch; assay type: in vivo, FVB mice; settings: FIG. 5C
[2] = test system: airway leukocyte accumulation; experiment: OVA sensitization and aerosol challenge: lung histology and BAL leukocytes; assay type: in vivo
Description: To determine if PD1 and Resolvin E1 had properties of a counter-regulatory mediator during airway inflammation, physiologically relevant quantities (2, 20 or 200 ng) were administered by intravenous injection to allergen sensitized animals just prior (30 min) to aerosol challenge on 4 consecutive days. […] In conjunction with decreased airway inflammation, levels of the counter-regulatory eicosanoid LXA4 were also […] in the presence of PD1 (data not shown).
Five to seven week old male FvB mice (Charles River Laboratories, Wilmington, Mass.) were housed in isolation cages under viral antibody-free conditions. Mice were fed a standard diet (Laboratory Rodent Diet 5001, PMI Nutrition International, Richmond, Ind.) that contained no less than 4.5% total fat with 0.26% omega-3 fatty acids and <0.01% C20:4. After Harvard Medical Area IRB approval (Protocol #02570), mice were sensitized with intraperitoneal injections of ovalbumin (OVA) (Grade III; Sigma Chemical Co., St. Louis, Mo.) (10 μg) plus 1 mg aluminum hydroxide (ALUM) (J. T. Baker Chemical Co.; Phillipsburg, N.J.) as adjuvant in 0.2 ml PBS on days 0 and 7. On days 14, 15, 16 and 17, the mice received PD1 (2, 20 or 200 ng), Resolvin E1 (200 ng) (products of biogenic synthesis (Hong, Gronert et al. 2003)), or PBS with 1.6 mM CaCl2 and 1.6 mM MgCl2 (0.1 ml) by intravenous injection 30 min prior to an aerosol challenge containing either PBS or 6% OVA for 25 min/day. On day 18, 24 h after the last aerosol challenge, airway responsiveness to aerosolized methacholine (0, 20, 50 and 75 mg, 10 sec) was measured, bilateral bronchoalveolar lavage (BAL) (2 aliquots of 1 ml PBS plus 0.6 mM EDTA) was performed or tissues were harvested for histological analysis. Lung resistance was measured using a Flexivent ventilator (SciReq, Montreal, Quebec). Resistance was measured as a function of time for each animal, and peak and average values for each dose of methacholine were recorded. No BAL or histological analysis was performed on those animals undergoing airway hyper-responsiveness or lipid extraction studies.
Tissue morphometry was performed by a member (K. Haley) of the Lung Histopathology Core Laboratory at Brigham and Women's Hospital who was blinded to the experimental conditions prior to histological analyses. Three fields per slide were examined at 200× magnification for vessels, large airways and alveoli with EOS counted at 400× magnification in randomly assigned fields. Vessels were identified by perivascular smooth muscle, and large airways were identified by at least ½ their diameter either cuboidal or columnar epithelia. Measurement of inflammatory mediators was determined in cell-free BAL fluid (2000 g, 10 min) by sensitive and specific ELISAs, in tandem, for interleukin-5 (IL-5), IL-12, IL-13, PGD2 (R&D Systems, Minneapolis, Minn.), cysteinyl LTs, (Cayman Chemical Co, Ann Arbor, Mich.), and LXA4 (Neogen, Lexington, Ky.). Cells in BALF were resuspended in PBS, enumerated by hemocytometer, and concentrated onto microscope slides by cytocentrifuge (STATspin) (265 g). Cells were stained with a Wright-Giemsa stain (Sigma Chemical Co.) to determine leukocyte differentials (after counting ≧200 cells).

Structure (SMILES): CCC(O)/C=C/C=C\C/C=C\C/C=C\C=C\[C@@H](O)CCCC(=O)O (mixture of isomers) [5S,18(+/−)-diHEPA]
potency relative to comparator at equal dose (PMN infiltration; PMN/leukocyte infiltration, FIG. 16 and FIG. 18): equipotent to Resolvin E1 | inhibition of PMN/leukocyte infiltration (PMN infiltration): downregulation of PMN infiltration | inhibition of PMN/leukocyte infiltration (PMN infiltration; listed as 5S,18(+/−)-diHEPE): reduction of neutrophil infiltration

Structure (SMILES): CC/C=C\C[C@H](O)/C=C/C=C\C=C\[C@@H](O)C/C=C\CC#CCCC(=O)O [4,5-dehydro 10,17S-dihydroxy DHA]
inhibition of the PMN infiltration (PMN infiltration; 100 ng dose): 40%

Structure (SMILES): CC/C=C\C[C@H](O)/C=C/C=C\CC(O)\C=C/C=C/C=C/[C@@H](O)CCC(=O)O (stereo partly drawn) [4S,11,17R-triHDHA, 4S,11,17S,-trihydroxy-docosa-5E,7E,9Z,13Z,15E,19Z-hexaenoic acid]
inhibition of PMN/leukocyte infiltration (PMN infiltration): potent inhibitor

Structure (SMILES): CC/C=C\C[C@@H](O)/C=C/C=C\C/C=C\C=C\[C@@H](O)C/C=C\CCC(=O)O [7S,17R-diHDHA, 7S,17R-dihydroxy-docosa-4Z,8E,10Z,13Z,15E,19Z-hexaenoic acid]
inhibition of PMN/leukocyte infiltration (PMN infiltration): potent inhibitor

IC50 [1]: ~0.05 nM
Structure (SMILES): CC/C=C\C/C=C\C=C\C(O)C/C=C\C/C=C\C/C=C\CCC(=O)O (centres unmarked) [13-HDHA, 13-hydroxy-DHA]

% Increase of 17-HDHA (human recombinant COX-2; NSAID incubated 30 min with COX-2, ASA 2 mM, indomethacin 200 μM, acetaminophen 500 μM, NS398 100 μM, mean±SEM, n=3): 0.0% | inhibition at 500 µM (human recombinant COX-2; read-out: % Inhibition of 13-HDHA): 87.7 ± 4.3%
Structure (SMILES): CC(=O)Nc1ccc(O)cc1 [Acetaminophen, acetaminophen]
formation of 17R-HDHA from DHA by NSAID-treated COX-2 (human recombinant COX-2; recombinant COX-2 incubations): did not give appreciable amounts of 17R-HDHA

Structure (SMILES): CC[C@@H](O)/C=C/C=C\C[C@@H](O)/C=C/C=C/C=C\[C@@H](O)CCCC(=O)O [EPA-derived 5,12,18R series product]
prevention of leukocyte diapedesis and exudate formation relative to 15-epi-lipoxin A4 stable analog (leukocyte infiltration): as effective as a potent stable analog of 15-epi-lipoxin A4

Structure (SMILES): CC[C@@H](O)/C=C/C=C\C[C@@H](O)/C=C/C=C/C=C\[C@@H](O)CCCC(=O)O [Resolvin E1, 5S,12R,18R-trihydroxy-6Z,8E,10E,14Z,16E-eicosapentaenoic acid]
inhibition of PMN/leukocyte infiltration (PMN infiltration): reduction of neutrophil infiltration | eosinophil and lymphs (FIG. 25) ([2]; 10,17-DT 20 ng and 200 ng, Resolvin E1 200 ng): reduction | total leukocytes, EOS and Lymphs in BAL fluid ([2]; PD1 2, 20 or 200 ng, Resolvin E1 200 ng i.v.): decreased
